We go through 39 compounds from patent US6977262B2, “Dihydropyrazolopyridine compounds and pharmaceutical use thereof” (Mitsubishi Pharma Corporation, priority 2001, dated 2005).

Each structure is given as a SMILES string. Bounds are passed on as bounds.

Usually melting point stands for the temperature, or range, at which the solid turns liquid.

For the compound `CCCC1=C([N+](=O)[O-])C(c2cccc(Cl)c2Cl)c2c[nH]nc2N1` (stereo not drawn) [Example 122, 4-(2,3-Dichlorophenyl)-4,7-dihydro-5-nitro-6-propyl-2H-pyrazolo[3,4-b]pyridine], the melting point amounted to 239 °C. For `CCCC1=C([N+](=O)[O-])C(c2cccc3ccccc23)c2c[nH]nc2N1` (stereo not drawn) [Example 123, 4,7-Dihydro-4-(naphthalen-1-yl)-5-nitro-6-propyl-2H-pyrazolo[3,4-b]pyridine] the value was 226 °C; for `CCCC1=C([N+](=O)[O-])C(c2cccc3c2OCCC3)c2c[nH]nc2N1` (stereo not drawn) [Example 124, 4,7-Dihydro-4-(3,4-dihydro-2H-benzopyran-8-yl)-5-nitro-6-propyl-2H-pyrazolo[3,4-b]pyridine], 234 °C; for `CC1=C([N+](=O)[O-])C(c2cccc(Cl)c2Cl)c2c[nH]nc2N1` (stereo not drawn) [Example 125, 4-(2,3-Dichlorophenyl)-4,7-dihydro-6-methyl-5-nitro-2H-pyrazolo[3,4-b]pyridine], over 270 °C. For `CCC1=C([N+](=O)[O-])C(c2cccc(Cl)c2Cl)c2c[nH]nc2N1` (stereo not drawn) [Example 126, 4-(2,3-Dichlorophenyl)-6-ethyl-4,7-dihydro-5-nitro-2H-pyrazolo[3,4-b]pyridine] the value was 250 °C. Next, `CCCCC1=C([N+](=O)[O-])C(c2cccc(Cl)c2Cl)c2c[nH]nc2N1` (stereo not drawn) [Example 127, 6-Butyl-4-(2,3-dichlorophenyl)-4,7-dihydro-5-nitro-2H-pyrazolo[3,4-b]pyridine]: 220 °C. In turn, `CCCC1=C(C#N)C(c2ccccc2Br)c2c[nH]nc2N1` (stereo not drawn) [Example 128, 4-(2-Bromophenyl)-5-cyano-4,7-dihydro-6-propyl-2H-pyrazolo[3,4-b]pyridine] came in with a melting point of 237 °C. Regarding `CCCC1=C(C#N)C(c2ccccc2OC)c2c[nH]nc2N1` (stereo not drawn) [Example 129, 5-Cyano-4,7-dihydro-4-(2-methoxyphenyl)-6-propyl-2H-pyrazolo[3,4-b]pyridine], the melting point is 203 °C. For `CCCC1=C(C#N)C(c2ccccc2SC)c2c[nH]nc2N1` (stereo not drawn) [Example 130, 5-Cyano-4,7-dihydro-4-(2-methylthiophenyl)-6-propyl-2H-pyrazolo[3,4-b]pyridine] the value was 216 °C.

Turning to `CCCC1=C(C#N)C(c2ccccc2C)c2c[nH]nc2N1` (stereo not drawn) [Example 131, 5-Cyano-4,7-dihydro-4-(2-methylphenyl)-6-propyl-2H-pyrazolo[3,4-b]pyridine], the melting point was 230 °C.

Consider `CCCC1=C(C#N)C(c2ccccc2[N+](=O)[O-])c2c[nH]nc2N1` (stereo not drawn) [Example 132, 5-Cyano-4,7-dihydro-4-(2-nitrophenyl)-6-propyl-2H-pyrazolo[3,4-b]pyridine], for which the melting point is 216 °C. For `CCCC1=C(C#N)C(c2ccccc2C#N)c2c[nH]nc2N1` (stereo not drawn) [Example 133, 5-Cyano-4-(2-cyanophenyl)-4,7-dihydro-6-propyl-2H-pyrazolo[3,4-b]pyridine] the value was 218 °C; for `CCCC1=C(C#N)C(c2cccc(Cl)c2Cl)c2c[nH]nc2N1` (stereo not drawn) [Example 134, 5-Cyano-4-(2,3-dichlorophenyl)-4,7-dihydro-6-propyl-2H-pyrazolo[3,4-b]pyridine], 242 °C; for `CCCC1=C(C#N)C(c2cccc3ccccc23)c2c[nH]nc2N1` (stereo not drawn) [Example 135, 5-Cyano-4,7-dihydro-4-(naphthalen-1-yl)-6-propyl-2H-pyrazolo[3,4-b]pyridine], 263 °C. For `CCCC1=C(C#N)C(c2cccc3c2OCCC3)c2c[nH]nc2N1` (stereo not drawn) [Example 136, 5-Cyano-4-(3,4-dihydro-2H-benzopyran-8-yl)-4,7-dihydro-6-propyl-2H-pyrazolo[3,4-b]pyridine] the value was 230 °C; for `CCCC1=C(C#N)C(c2cccc3nonc23)c2c[nH]nc2N1` (stereo not drawn) [Example 137, 4-(2,1,3-Benzoxadiazol-4-yl)-5-cyano-4,7-dihydro-6-propyl-2H-pyrazolo[3,4-b]pyridine], 194 °C; for `CCCC1=C(C#N)C(c2cccc3nsnc23)c2c[nH]nc2N1` (stereo not drawn) [Example 138, 4-(2,1,3-Benzothiadiazol-4-yl)-5-cyano-4,7-dihydro-6-propyl-2H-pyrazolo[3,4-b]pyridine], 195 °C. For `CCCC1=C(C#N)C(c2cccc3oc(C)nc23)c2c[nH]nc2N1` (stereo not drawn) [Example 139, 5-Cyano-4,7-dihydro-4-(2-methylbenzoxazol-4-yl)-6-propyl-2H-pyrazolo[3,4-b]pyridine] the value was 208 °C; for `CCCC1=C(C#N)[C@H](c2cccc3nonc23)c2c[nH]nc2N1` [Example 140, R(−) 4-(2,1,3-Benzoxadiazol-4-yl)-5-cyano-4,7-dihydro-6-propyl-2H-pyrazolo[3,4-b]pyridine], 170 °C. For the compound `N#CC1=C(c2ccccc2)Nc2n[nH]cc2C1c1ccccc1Cl` (stereo not drawn) [Example 142, 4-(2-Chlorophenyl)-5-cyano-4,7-dihydro-6-phenyl-2H-pyrazolo[3,4-b]pyridine], the melting point amounted to 158 °C.

In turn, `CSc1ccccc1C1C(C#N)=C(c2ccccc2)Nc2n[nH]cc21` (stereo not drawn) [Example 143, 5-Cyano-4,7-dihydro-4-(2-methylthiophenyl)-6-phenyl-2H-pyrazolo[3,4-b]pyridine] came in with a melting point of 146 °C. For `N#CC1=C(c2ccccc2)Nc2n[nH]cc2C1c1ccccc1C#N` (stereo not drawn) [Example 144, 5-Cyano-4-(2-cyanophenyl)-4,7-dihydro-6-phenyl-2H-pyrazolo[3,4-b]pyridine] the value was 148 °C. Next, `N#CC1=C(c2ccccc2)Nc2n[nH]cc2C1c1cccc(Cl)c1Cl` (stereo not drawn) [Example 145, 5-Cyano-4-(2,3-dichlorophenyl)-4,7-dihydro-6-phenyl-2H-pyrazolo[3,4-b]pyridine]: 162 °C. `N#CC1=C(c2ccccc2)Nc2n[nH]cc2C1c1cccc2ccccc12` (stereo not drawn) [Example 146, 5-Cyano-4,7-dihydro-4-(naphthalen-1-yl)-6-phenyl-2H-pyrazolo[3,4-b]pyridine] displayed a melting point of 174 °C. For the compound `N#CC1=C(c2ccccc2)Nc2n[nH]cc2C1c1cccc(C#N)c1Br` (stereo not drawn) [Example 147, 4-(2-Bromo-3-cyanophenyl)-5-cyano-4,7-dihydro-6-phenyl-2H-pyrazolo[3,4-b]pyridine], the melting point is over 270 °C. Next, `N#CC1=C(c2ccccc2)Nc2n[nH]cc2C1c1cccc2c1OCCC2` (stereo not drawn) [Example 148, 5-Cyano-4-(3,4-dihydro-2H-benzopyran-8-yl)-4,7-dihydro-6-phenyl-2H-pyrazolo[3,4-b]pyridine]: 255 °C. Next, `N#CC1=C(c2ccccc2)Nc2n[nH]cc2C1c1cccc(F)c1F` (stereo not drawn) [Example 149, 5-Cyano-4-(2,3-difluorophenyl)-4,7-dihydro-6-phenyl-2H-pyrazolo[3,4-b]pyridine]: 165 °C; `COc1ccccc1C1C(C#N)=C(c2ccccc2)Nc2n[nH]cc21` (stereo not drawn) [Example 150, 5-Cyano-4,7-dihydro-4-(2-methoxyphenyl)-6-phenyl-2H-pyrazolo[3,4-b]pyridine]: 206 °C; `COc1ccccc1C1=C(C#N)C(c2ccccc2OC)c2c[nH]nc2N1` (stereo not drawn) [Example 151, 5-Cyano-4,7-dihydro-4,6-bis-(2-methoxyphenyl)-2H-pyrazolo[3,4-b]pyridine]: 220 °C. Next, `COc1cccc(C2=C(C#N)C(c3ccccc3OC)c3c[nH]nc3N2)c1` (stereo not drawn) [Example 152, 5-Cyano-4,7-dihydro-4-(2-methoxyphenyl)-6-(3-methoxyphenyl)-2H-pyrazolo[3,4-b]pyridine]: 192 °C; `COc1ccc(C2=C(C#N)C(c3ccccc3OC)c3c[nH]nc3N2)cc1` (stereo not drawn) [Example 153, 5-Cyano-4,7-dihydro-4-(2-methoxyphenyl)-6-(4-methoxyphenyl)-2H-pyrazolo[3,4-b]pyridine]: 149 °C. `N#CC1=C(c2ccccc2)Nc2n[nH]cc2C1c1ccccc1[N+](=O)[O-]` (stereo not drawn) [Example 154, 5-Cyano-4,7-dihydro-4-(2-nitrophenyl)-6-phenyl-2H-pyrazolo[3,4-b]pyridine] displayed a melting point of 221 °C. Next, `COc1ccccc1C1=C(C#N)C(c2ccccc2[N+](=O)[O-])c2c[nH]nc2N1` (stereo not drawn) [Example 155, 5-Cyano-4,7-dihydro-6-(2-methoxyphenyl)-4-(2-nitrophenyl)-2H-pyrazolo[3,4-b]pyridine]: 207 °C.

For the compound `COc1cccc(C2=C(C#N)C(c3ccccc3[N+](=O)[O-])c3c[nH]nc3N2)c1` (stereo not drawn) [Example 156, 5-Cyano-4,7-dihydro-6-(3-methoxyphenyl)-4-(2-nitrophenyl)-2H-pyrazolo[3,4-b]pyridine], the melting point was found to be 220 °C. Next, `COc1ccc(C2=C(C#N)C(c3ccccc3[N+](=O)[O-])c3c[nH]nc3N2)cc1` (stereo not drawn) [Example 157, 5-Cyano-4,7-dihydro-6-(4-methoxyphenyl)-4-(2-nitrophenyl)-2H-pyrazolo[3,4-b]pyridine]: 215 °C; `N#CC1=C(c2ccccc2)Nc2n[nH]cc2C1c1cccc2nonc12` (stereo not drawn) [Example 158, 4-(2,1,3-Benzoxadiazol-4-yl)-5-cyano-4,7-dihydro-6-phenyl-2H-pyrazolo[3,4-b]pyridine]: 231 °C; `COc1ccccc1C1=C(C#N)C(c2cccc3nonc23)c2c[nH]nc2N1` (stereo not drawn) [Example 159, 4-(2,1,3-Benzoxadiazol-4-yl)-5-cyano-4,7-dihydro-6-(2-methoxyphenyl)-2H-pyrazolo[3,4-b]pyridine]: 180 °C.

For the compound `COc1cccc(C2=C(C#N)C(c3cccc4nonc34)c3c[nH]nc3N2)c1` (stereo not drawn) [Example 160, 4-(2,1,3-Benzoxadiazol-4-yl)-5-cyano-4,7-dihydro-6-(3-methoxyphenyl)-2H-pyrazolo[3,4-b]pyridine], the melting point stood at 198 °C. `COc1ccc(C2=C(C#N)C(c3cccc4nonc34)c3c[nH]nc3N2)cc1` (stereo not drawn) [Example 161, 4-(2,1,3-Benzoxadiazol-4-yl)-5-cyano-4,7-dihydro-6-(4-methoxyphenyl)-2H-pyrazolo[3,4-b]pyridine] had a melting point of 244 °C.
